Assay results: PMC7311426, “An amphipathic peptide with antibiotic activity against multidrug-resistant Gram-negative bacteria” (Nature Communications, 2020)
Converted amounts (≈) assume the structure as drawn. Residues, ends and D or L forms follow the SMILES beside them.

Experiments:
Assay in all cases: microbe, parasite or virus in culture
E. coli ATCC 25922 = assay type: cell-based, Escherichia coli; details: ATCC 25922
In short: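 Broth microdilution MIC in Mueller Hinton broth, 12-point 2-fold series from 128 or 64 down to 0.06 or 0.03 μg mL^−1, 5 × 10^5 CFU mL^−1 inoculum. Read visually after 18-20 h at 37 °C without shaking; n ≥ 6. Additional tests in CAMHB, and in MHB with 1% agarose.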

[1] = test system: E. coli (AID#172 & ATCC 25922); assay type: cell-based, Escherichia coli
Procedure: (§1) The test media was cation-adjusted MHB (CAMHB, Becton Dickinson) supplemented with 2% Noble Agar (Becton Dickinson) and additionally for AA139 with 0.1% BSA. The agar dilution MIC values were determined as recommended by Clinical and Laboratory Standards Institute (CLSI)[47]. […] The inoculum for the spontaneous mutation plates targeted 10^9 to 10^10 colony-forming units (CFU) per plate. The viable count of each suspension was determined by plating serial ten-fold dilutions onto MHB/NA in duplicate. In addition, agar plates without drug were inoculated as positive controls. Plates were inspected for growth at both 24 and 48 h. Colony counts were determined manually. Using the counts at 48 h, the spontaneous mutation frequency was calculated using the following equation: (average number of colonies from duplicate selection plates)/(total number of cells inoculated onto each plate). If there were no colonies on the antibiotic selection plates, the spontaneous mutation frequency was reported as less than the frequency observed with one colony to indicate that the spontaneous mutation frequency was less than the limit of detection (one CFU).

P. aeruginosa = assay type: cell-based, Pseudomonas aeruginosa; details: P. aeruginosa FADDI-070 MDR, PmxR; n=2 to 6, mode or median
[2] = test system: P. aeruginosa (UNT138-1 & ATCC 27853); assay type: cell-based, Pseudomonas aeruginosa
Procedure: as §1

[3] = test system: K. pneumoniae (#3010 & ST258); assay type: cell-based, Klebsiella pneumoniae
Procedure: as §1

K. pneumoniae = assay type: cell-based, Klebsiella pneumoniae; details: n=2 to 6, mode or median

How did the “MIC, MHB” value (E. coli ATCC 25922) turn out when `CC(C)[C@@H]1NC(=O)[C@H](Cc2ccc(O)cc2)NC(=O)[C@H](Cc2c[nH]c3ccccc23)NC(=O)[C@@H](NC(=O)[C@H](Cc2ccccc2)NC(=O)CN)CSSC[C@@H](C(=O)N[C@@H](CC(N)=O)C(=O)O)NC(=O)[C@H](CCCNC(=N)N)NC(=O)[C@H](CCCNC(=N)N)NC(=O)[C@H](Cc2ccc(O)cc2)NC(=O)[C@@H]2CSSC[C@H](NC1=O)C(=O)N[C@@H](C)C(=O)N[C@@H](CCCNC(=N)N)C(=O)N[C@@H](CCCNC(=N)N)C(=O)N[C@@H](CC(N)=O)C(=O)NCC(=O)N[C@@H](C)C(=O)N[C@@H](CCCNC(=N)N)C(=O)N[C@@H](C(C)C)C(=O)N2` [AA139] (HELM PEPTIDE1{G.F.C.W.Y.V.C.A.R.R.N.G.A.R.V.C.Y.R.R.C.N}$PEPTIDE1,PEPTIDE1,3:R3-20:R3|PEPTIDE1,PEPTIDE1,7:R3-16:R3$$$V2.0) was run?
The value was 0.125 µg/mL (≈ 0.049 µM).

What about the “Agar (Noble) Dilution MIC” value ([1]; E. coli ATCC 25922) of the same compound?
Its value is 8 µg/mL.

What about the “Agar (Noble) Dilution MIC” value ([1]; E. coli AUD172) of the same compound?
The value was 8 µg/mL.

And the “MIC, Serum (50%)” value (P. aeruginosa)?
Its value is 8 µg/mL (≈ 3.14 µM).

And the “MIC, Survanta (5%)” value (P. aeruginosa)?
Its value is 8 µg/mL (≈ 3.14 µM).

What about the “Agar (Noble) Dilution MIC” value ([2]; P. aeruginosa ATCC 27853) of the same compound?
Its value is 8 µg/mL.

And the “Agar (Noble) Dilution MIC” value ([2]; P. aeruginosa UNT138-1)?
The value was 16 µg/mL.

And the “Agar (Noble) Dilution MIC” value ([3]; K. pneumoniae 3010)?
The value was 16 µg/mL.

What about the “Agar (Noble) Dilution MIC” value ([3]; K. pneumoniae ST258) of the same compound?
Its value is 16 µg/mL.

And the “MIC, Serum (50%)” value (K. pneumoniae; K. pneumoniae ATCC 700603 ESBL, OXA-2/SHV-18)?
The value was 8 µg/mL (≈ 3.14 µM).

What about the “MIC, Survanta (5%)” value (K. pneumoniae; K. pneumoniae BAA-2146 NDM-1) of the same compound?
Its value is 2 µg/mL (≈ 0.784 µM).
